Measured values reported in ChEMBL document CHEMBL5696439 (Cancer Res, 2010).
Active and inactive are the calls of the source. No cut-off for these calls is given here.

Tests used:
MDA-MB-361 [1] = test: Antitumor activity against human MDA-MB-361 cells assessed as block the accumulation of HIF-2alpha in low oxygen at 0.3 micromol/L incubated for 24 hrs by immunoblot analysis; assay type: functional, cell-based; conditions: dose 0.3 µmol/L
[2] = biological target: Proto-oncogene tyrosine-protein kinase Src (Homo sapiens) (UniProt P12931); test: Inhibition of recombinant human full length SRC N1 expressed in baculovirus expression system at 2 uM using Tyr 02 as substrate measured after 1 hr by Z'-LYTE assay relative to control
U-87 MG = test: Antiproliferative activity against human U-87MG cells assessed as cell growth inhibition at 10 micromol/L incubated for 3 days by MTS assay relative to control; assay type: functional, U-87MG ATCC; conditions: 72 h, dose 10 µmol/L, time 3 day
[3] = test system: Platelet-derived growth factor receptor alpha (Homo sapiens), P16234 [T674I]; test: Inhibition of recombinant human GST-tagged PDGFRA T674I mutant (550-1089 residues) expressed in baculovirus expression system at 2 uM using Tyr 04 as substrate measured after 1 hr by Z'-LYTE assay relative to control
[4] = biological target: Serine/threonine-protein kinase TBK1 (Homo sapiens) (UniProt Q9UHD2); test: Inhibition of recombinant human full length GST-tagged TBK1 expressed in insect cells at 2 uM using Ser/Thr 05 as substrate measured after 1 hr by Z'-LYTE assay relative to control; conditions: Insect cell
Serine/threonine-protein kinase TBK1 (Homo sapiens), sequence (Q9UHD2 whole entry): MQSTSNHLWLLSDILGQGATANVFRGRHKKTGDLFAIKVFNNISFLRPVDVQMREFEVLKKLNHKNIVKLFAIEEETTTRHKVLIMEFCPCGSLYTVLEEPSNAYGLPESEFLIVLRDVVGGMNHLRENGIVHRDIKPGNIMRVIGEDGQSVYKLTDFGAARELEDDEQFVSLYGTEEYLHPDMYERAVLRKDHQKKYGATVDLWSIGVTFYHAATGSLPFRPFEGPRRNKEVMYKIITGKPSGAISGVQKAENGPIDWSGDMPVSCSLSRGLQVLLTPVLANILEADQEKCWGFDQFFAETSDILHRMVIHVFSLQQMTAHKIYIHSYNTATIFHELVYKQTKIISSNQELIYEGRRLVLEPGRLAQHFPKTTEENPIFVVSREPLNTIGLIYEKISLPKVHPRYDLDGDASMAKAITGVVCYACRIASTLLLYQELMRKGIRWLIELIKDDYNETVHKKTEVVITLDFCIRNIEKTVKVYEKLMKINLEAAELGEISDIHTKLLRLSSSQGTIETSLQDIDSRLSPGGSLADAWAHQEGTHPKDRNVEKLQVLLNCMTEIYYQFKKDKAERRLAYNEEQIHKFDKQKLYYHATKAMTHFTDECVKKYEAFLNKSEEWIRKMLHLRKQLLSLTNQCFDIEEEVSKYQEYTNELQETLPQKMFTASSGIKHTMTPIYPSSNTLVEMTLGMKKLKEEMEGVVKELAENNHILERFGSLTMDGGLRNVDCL

MDA-MB-361 [5] = test: Induction of apoptosis in human MDA-MB-361 cells assessed as PARP cleavage at 0.05 to 5 micromol/L incubated for 48 hrs by Western blot analysis; assay type: functional, cell-based; conditions: dose 0.05-5 µmol/L
MDA-MB-361 [6] = test: Induction of apoptosis in human MDA-MB-361 cells assessed as change in AKT phosphorylation at T308 level at 0.05 to 5 micromol/L incubated for 48 hrs by Western blot analysis; assay type: functional, cell-based; conditions: dose 0.05-5 µmol/L
[7] = biological target: Tyrosine-protein kinase Lck (Homo sapiens) (UniProt P06239); test: Inhibition of recombinant human full-length His-tagged LCK expressed in insect cells at 2 uM using Tyr 02 as substrate measured after 1 hr by Z'-LYTE assay relative to control; conditions: Insect cell
MDA-MB-361 [8] = test: Antitumor activity against human MDA-MB-361 cells assessed as block the accumulation of HIF-1alpha in low oxygen at 0.3 micromol/L incubated for 24 hrs by immunoblot analysis; assay type: functional, cell-based; conditions: dose 0.3 µmol/L
[9] = biological target: Ephrin type-A receptor 8 (Homo sapiens) (UniProt P29322); test: Inhibition of recombinant human GST-tagged EPHA8 (565-1005 residues) expressed in insect cells at 2 uM using Tyr 02 as substrate measured after 1 hr by Z'-LYTE assay relative to control; conditions: Insect cell
MDA-MB-361 [10] = test: Inhibition of protein synthesis in human MDA-MB-361 cells at 0.3 micromol/L incubated for 3 hrs by [3H] methionine incorporation based scintillation counter analysis relative to control; assay type: functional; conditions: MDA-MB-361, 3 h, dose 0.3 µmol/L
[11] = biological target: SRSF protein kinase 2 (Homo sapiens) (UniProt P78362); test: Inhibition of recombinant human full length GST-tagged SRPK2 expressed in insect cells at 2 uM using Ser/Thr 07 as substrate measured after 1 hr by Z'-LYTE assay relative to control; conditions: Insect cell
SRSF protein kinase 2 (Homo sapiens), sequence (P78362 whole entry, looked up): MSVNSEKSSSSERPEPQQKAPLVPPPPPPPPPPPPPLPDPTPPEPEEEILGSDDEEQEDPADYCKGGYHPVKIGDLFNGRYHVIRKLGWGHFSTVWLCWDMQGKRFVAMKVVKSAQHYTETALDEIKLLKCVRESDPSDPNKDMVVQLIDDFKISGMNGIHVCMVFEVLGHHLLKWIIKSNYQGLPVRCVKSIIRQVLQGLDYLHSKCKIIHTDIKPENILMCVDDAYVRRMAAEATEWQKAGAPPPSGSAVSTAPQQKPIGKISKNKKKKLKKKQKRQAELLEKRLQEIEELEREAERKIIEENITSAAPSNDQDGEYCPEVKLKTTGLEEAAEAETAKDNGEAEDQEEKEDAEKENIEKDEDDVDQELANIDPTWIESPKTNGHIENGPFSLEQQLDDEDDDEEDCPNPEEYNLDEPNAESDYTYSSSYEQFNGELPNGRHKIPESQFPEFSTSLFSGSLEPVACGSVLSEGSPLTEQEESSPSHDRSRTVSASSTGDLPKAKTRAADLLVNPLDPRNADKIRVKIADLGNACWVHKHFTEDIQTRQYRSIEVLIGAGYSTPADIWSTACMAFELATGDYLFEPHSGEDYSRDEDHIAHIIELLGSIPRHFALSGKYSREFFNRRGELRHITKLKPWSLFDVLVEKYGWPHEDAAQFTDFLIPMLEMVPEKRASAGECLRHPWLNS

[12] = biological target: Serine/threonine-protein kinase PAK 6 (Homo sapiens) (UniProt Q9NQU5); test: Inhibition of recombinant human full length His-tagged PAK6 expressed in insect cells at 2 uM using Ser/Thr 20 as substrate measured after 1 hr by Z'-LYTE assay relative to control; conditions: Insect cell
Serine/threonine-protein kinase PAK 6 (Homo sapiens), sequence (Q9NQU5 whole entry, looked up, the tested form may be a part): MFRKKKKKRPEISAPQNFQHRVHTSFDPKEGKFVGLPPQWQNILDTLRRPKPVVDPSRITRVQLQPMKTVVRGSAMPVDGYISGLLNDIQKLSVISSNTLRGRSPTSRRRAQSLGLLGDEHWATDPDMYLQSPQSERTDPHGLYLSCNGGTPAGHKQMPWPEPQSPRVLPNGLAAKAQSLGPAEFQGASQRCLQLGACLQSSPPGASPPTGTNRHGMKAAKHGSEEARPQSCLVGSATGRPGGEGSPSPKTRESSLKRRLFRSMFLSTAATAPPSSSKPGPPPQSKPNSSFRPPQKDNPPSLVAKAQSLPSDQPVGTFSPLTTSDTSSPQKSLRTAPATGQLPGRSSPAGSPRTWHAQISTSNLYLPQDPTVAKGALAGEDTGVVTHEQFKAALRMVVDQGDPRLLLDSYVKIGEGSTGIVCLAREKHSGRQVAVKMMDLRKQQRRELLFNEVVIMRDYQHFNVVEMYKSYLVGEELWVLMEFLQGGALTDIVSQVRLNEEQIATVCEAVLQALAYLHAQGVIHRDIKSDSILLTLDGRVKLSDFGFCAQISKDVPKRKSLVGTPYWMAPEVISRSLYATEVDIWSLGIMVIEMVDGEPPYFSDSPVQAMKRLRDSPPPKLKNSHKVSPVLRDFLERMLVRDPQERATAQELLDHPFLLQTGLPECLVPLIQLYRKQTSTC

[13] = test system: Platelet-derived growth factor receptor alpha (Homo sapiens), P16234 [D842V]; test: Inhibition of recombinant human GST-tagged PDGFRA D842V mutant (550-1089 residues) expressed in baculovirus expression system at 2 uM using Tyr 04 as substrate measured after 1 hr by Z'-LYTE assay relative to control
[14] = biological target: Tyrosine-protein kinase Fes/Fps (Homo sapiens) (UniProt P07332); test: Inhibition of recombinant human full-length His-tagged FES expressed in baculovirus expression system at 2 uM using Tyr 01 as substrate measured after 1 hr by Z'-LYTE assay relative to control
[15] = biological target: Mitogen-activated protein kinase kinase kinase kinase 5 (Homo sapiens) (UniProt Q9Y4K4); test: Inhibition of recombinant human full length GST-tagged MAP4K5 expressed in insect cells at 2 uM using Ser/Thr 07 as substrate measured after 1 hr by Z'-LYTE assay relative to control; conditions: Insect cell
[16] = biological target: Ephrin type-B receptor 2 (Homo sapiens) (UniProt P29323); test: Inhibition of recombinant human GST-tagged EPHB2 (616-884 residues) expressed in insect cells at 2 uM using Tyr 02 as substrate measured after 1 hr by Z'-LYTE assay relative to control; conditions: Insect cell
[17] = biological target: Calcium/calmodulin-dependent protein kinase type IV (Homo sapiens) (UniProt Q16566); test: Inhibition of recombinant human full-length GST-tagged CAMK4 expressed in E. coli at 2 uM using Ser/Thr 13 as substrate measured after 1 hr by Z'-LYTE assay relative to control
Calcium/calmodulin-dependent protein kinase type IV (Homo sapiens), sequence (Q16566 whole entry): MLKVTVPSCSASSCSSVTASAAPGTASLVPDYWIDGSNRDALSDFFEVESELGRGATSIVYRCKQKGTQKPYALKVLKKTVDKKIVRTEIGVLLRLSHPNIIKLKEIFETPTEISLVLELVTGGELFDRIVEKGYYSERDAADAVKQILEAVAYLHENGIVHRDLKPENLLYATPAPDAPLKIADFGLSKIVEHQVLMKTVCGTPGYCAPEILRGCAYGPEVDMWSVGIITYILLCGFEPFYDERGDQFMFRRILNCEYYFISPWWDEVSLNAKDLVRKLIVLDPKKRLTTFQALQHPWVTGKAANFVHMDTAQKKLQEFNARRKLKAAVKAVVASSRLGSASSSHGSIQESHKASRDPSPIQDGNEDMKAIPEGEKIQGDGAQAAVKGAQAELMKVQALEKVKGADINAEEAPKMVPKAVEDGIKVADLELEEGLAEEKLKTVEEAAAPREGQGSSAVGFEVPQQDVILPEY

[18] = biological target: Mitogen-activated protein kinase 9 (Homo sapiens) (UniProt P45984); test: Inhibition of recombinant human full length His-tagged MAPK9 expressed in baculovirus expression system at 2 uM using Ser/Thr 04 as substrate measured after 1 hr by Z'-LYTE assay relative to control
Mitogen-activated protein kinase 9 (Homo sapiens), sequence (P45984 whole entry, looked up): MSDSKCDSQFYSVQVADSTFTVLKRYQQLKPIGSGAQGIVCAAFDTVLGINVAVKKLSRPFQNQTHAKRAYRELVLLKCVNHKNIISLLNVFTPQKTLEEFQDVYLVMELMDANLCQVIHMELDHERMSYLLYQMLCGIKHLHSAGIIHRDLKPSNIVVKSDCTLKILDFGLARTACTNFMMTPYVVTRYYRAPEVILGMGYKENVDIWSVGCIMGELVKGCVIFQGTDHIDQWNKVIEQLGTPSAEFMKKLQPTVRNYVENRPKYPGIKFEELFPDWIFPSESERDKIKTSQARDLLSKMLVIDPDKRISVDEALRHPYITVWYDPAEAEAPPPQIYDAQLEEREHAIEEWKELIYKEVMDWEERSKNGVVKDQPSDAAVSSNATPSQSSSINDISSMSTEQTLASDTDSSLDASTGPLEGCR

[19] = biological target: Aurora kinase C (Homo sapiens) (UniProt Q9UQB9); test: Inhibition of recombinant human full-length GST-tagged AURKC expressed in insect cells at 2 uM using Ser/Thr 19 as substrate measured after 1 hr by Z'-LYTE assay relative to control; conditions: Insect cell
Aurora kinase C (Homo sapiens), sequence (Q9UQB9 whole entry): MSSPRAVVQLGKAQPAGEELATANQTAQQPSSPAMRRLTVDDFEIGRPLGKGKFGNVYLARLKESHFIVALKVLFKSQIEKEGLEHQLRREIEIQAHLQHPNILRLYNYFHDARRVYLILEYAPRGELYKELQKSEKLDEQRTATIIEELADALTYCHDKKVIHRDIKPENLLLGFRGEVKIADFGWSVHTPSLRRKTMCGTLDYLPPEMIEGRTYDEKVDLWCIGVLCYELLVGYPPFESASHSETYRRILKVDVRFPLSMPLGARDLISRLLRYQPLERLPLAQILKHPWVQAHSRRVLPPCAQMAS

MDA-MB-361 [20] = test: Antitumor activity against human MDA-MB-361 cells xenografted in female nude mouse model assessed as tumor growth delay at po qd administered as 5 days on/2 days off regimen for 4 cycles; assay type: functional, organism-based; conditions: dose 5-20 mg/kg, time 28.0 day
MDA-MB-361 [21] = test: Inhibition of protein synthesis in human MDA-MB-361 cells at 3 micromol/L incubated for 3 hrs by [3H] methionine incorporation based scintillation counter analysis relative to control; assay type: functional; conditions: MDA-MB-361, 3 h, dose 3 µmol/L
[22] = biological target: Vascular endothelial growth factor receptor 3 (Homo sapiens) (UniProt P35916); test: Inhibition of recombinant human GST-tagged FLT4 (800-1297 residues) expressed in insect cells at 2 uM using Tyr 04 as substrate measured after 1 hr by Z'-LYTE assay relative to control; conditions: Insect cell
[23] = biological target: Serine/threonine-protein kinase MRCK beta (Homo sapiens) (UniProt Q9Y5S2); test: Inhibition of recombinant human His-tagged CDC42BPB (1-473 residues) expressed in baculovirus expression system at 2 uM using Ser/Thr 13 as substrate measured after 1 hr by Z'-LYTE assay relative to control
Serine/threonine-protein kinase MRCK beta (Homo sapiens), sequence (Q9Y5S2 whole entry, the tested form may be a part): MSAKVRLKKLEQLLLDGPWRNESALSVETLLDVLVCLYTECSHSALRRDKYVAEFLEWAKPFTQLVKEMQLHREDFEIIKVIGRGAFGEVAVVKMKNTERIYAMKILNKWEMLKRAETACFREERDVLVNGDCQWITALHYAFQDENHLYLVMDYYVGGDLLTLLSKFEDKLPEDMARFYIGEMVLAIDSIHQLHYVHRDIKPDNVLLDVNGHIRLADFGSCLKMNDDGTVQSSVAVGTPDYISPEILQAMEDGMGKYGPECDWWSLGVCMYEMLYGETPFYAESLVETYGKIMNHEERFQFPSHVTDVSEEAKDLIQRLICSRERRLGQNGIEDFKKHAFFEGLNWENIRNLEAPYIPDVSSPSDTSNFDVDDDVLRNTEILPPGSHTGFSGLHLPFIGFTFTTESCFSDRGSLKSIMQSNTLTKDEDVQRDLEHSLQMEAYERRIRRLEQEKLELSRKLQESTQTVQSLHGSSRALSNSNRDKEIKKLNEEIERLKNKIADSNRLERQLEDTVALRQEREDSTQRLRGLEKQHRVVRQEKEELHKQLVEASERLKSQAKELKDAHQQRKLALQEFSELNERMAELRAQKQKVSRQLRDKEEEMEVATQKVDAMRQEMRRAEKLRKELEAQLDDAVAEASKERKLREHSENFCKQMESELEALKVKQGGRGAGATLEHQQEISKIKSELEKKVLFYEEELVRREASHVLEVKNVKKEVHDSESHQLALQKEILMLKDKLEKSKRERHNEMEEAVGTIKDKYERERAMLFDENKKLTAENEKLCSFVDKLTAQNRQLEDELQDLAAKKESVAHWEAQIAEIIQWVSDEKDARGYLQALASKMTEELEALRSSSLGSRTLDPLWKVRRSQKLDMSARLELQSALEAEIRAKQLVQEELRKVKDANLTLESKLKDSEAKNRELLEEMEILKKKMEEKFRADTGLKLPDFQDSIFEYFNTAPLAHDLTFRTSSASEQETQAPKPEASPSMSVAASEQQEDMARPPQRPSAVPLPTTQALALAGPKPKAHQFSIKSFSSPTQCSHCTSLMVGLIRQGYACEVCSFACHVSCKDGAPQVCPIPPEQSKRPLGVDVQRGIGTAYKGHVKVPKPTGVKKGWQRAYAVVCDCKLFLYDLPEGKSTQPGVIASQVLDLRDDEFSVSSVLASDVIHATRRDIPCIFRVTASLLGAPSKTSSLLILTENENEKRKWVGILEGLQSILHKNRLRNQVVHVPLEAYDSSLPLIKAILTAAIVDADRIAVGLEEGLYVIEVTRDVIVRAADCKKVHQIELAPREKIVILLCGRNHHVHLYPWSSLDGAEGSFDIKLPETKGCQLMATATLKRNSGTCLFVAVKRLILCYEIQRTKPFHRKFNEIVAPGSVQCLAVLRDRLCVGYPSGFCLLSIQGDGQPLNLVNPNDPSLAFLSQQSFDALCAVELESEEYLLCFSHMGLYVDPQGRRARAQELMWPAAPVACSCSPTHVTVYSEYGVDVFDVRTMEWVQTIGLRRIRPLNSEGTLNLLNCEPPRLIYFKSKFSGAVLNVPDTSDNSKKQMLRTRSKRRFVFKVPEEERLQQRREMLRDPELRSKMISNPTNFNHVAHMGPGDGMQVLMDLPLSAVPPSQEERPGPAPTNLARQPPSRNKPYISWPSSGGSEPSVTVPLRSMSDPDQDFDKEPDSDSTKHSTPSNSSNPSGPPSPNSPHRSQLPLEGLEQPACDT

[24] = biological target: Eukaryotic elongation factor 2 kinase (Homo sapiens) (UniProt O00418); test: Inhibition of recombinant human full-length GST-tagged EEF2K expressed in E. coli at 2 uM using Ser/Thr 24 as substrate measured after 1 hr by Z'-LYTE assay relative to control

CNC(=O)Nc1ccc(-c2nc(N3CC4CCC(C3)O4)c3cnn(C4CCC5(CC4)OCCO5)c3n2)cc1
Activity (MDA-MB-361 [1]): Active
inhibition [2]: 7%
inhibition at 10 µM (U-87 MG): 100%
inhibition [3]: 12%
inhibition [4]: 2%
Activity (MDA-MB-361 [5]): Active
Activity (MDA-MB-361 [6]): inactive
inhibition [7]: 10%
Activity (MDA-MB-361 [8]): Active
inhibition [9]: 24%
inhibition at 0.3 µM (MDA-MB-361 [10]): ~50%
inhibition [11]: 1%
inhibition [12]: 9%
inhibition [13]: 4%
inhibition [14]: -1%
inhibition [15]: 19%
inhibition [16]: 6%
inhibition [17]: -1%
inhibition [18]: 11%
inhibition [19]: 4%
Activity (MDA-MB-361 [20]): Dose-Dependent Effect
inhibition at 3 µM (MDA-MB-361 [21]): ~50%
inhibition [22]: 4%
inhibition [23]: 9%
inhibition [24]: 1%
